According to US6242432A, “Antithrombotic organic nitrates” (Nicox S.A., priority 1996, dated 2001):

What was measured:
intraocular pressure = test: Ocular hypotensive activity, topical application in rabbits; format: in vivo; settings: topical application of 100 μg
[1] = tested on: thrombosis induced by collagen plus adrenaline; test: Antithrombotic activity: collagen plus adrenaline induced thrombosis/death; format: in vivo, male Charles River rats of the Swiss strain; settings: 10 mg/kg oral daily for 5 days; collagen plus adrenaline 100 μM into caudal vein
Description: (§1) The products from Examples 1 and 2 had been administered in vivo always as 2%-by-weight suspensions in carboxymethyl cellulose.
(§2) The experimental groups were made up of 6 to 8 samples to allow appropriate statistical evaluation, which was carried out when needed.
5 groups of male Charles River rats of the Swiss strain, 15 to 20 g, received a daily oral dose of 10 mg/kg of, respectively, NO-ENA, enalapril, NO-TIM, timolol or vehicle for 5 days. At an appropriate time on the fourth day food (but not water) was withdrawn. 18 to 20 hours later the animals received the last treatment. One hour later the animals were injected into the caudal vein with 0.1 ml of a collagen (type 6, Sigma) mixture plus adrenaline hydrochloride (100 μM) diluted in a solution of 0.154 M sodium chloride. As previously explained (Cirino G. et al., Thrombosis Reasearch 79, 73, 1995), injection of this mixture caused death within 3 minutes in 90% of the control animals.

[2] = tested on: platelet aggregation induced by collagen; test: Antiplatelet activity: inhibition of collagen-induced platelet aggregation in vivo; parameters: species or system male Wistar rats; settings: rats, 10 mg/kg oral daily for 5 days; collagen 2 mg/kg i.v.; per-cent inhibition of the control group
Description: as §1, §2
The ability of NO-ENA and NO-TIM to inhibit platelet aggregation was evaluated using an in vivo model as described by Pinon (J. Pharmacol. Methods 12,79,1989). 5 groups of male Wistar rats (200 to 250 g) received an oral daily dose of 10 mg/kg of respectively, NO-ENA, enalapril, NO-TIM, timolol or vehicle for 5 days. At an appropriate time on the forth day food (but not water) was withdrawn. 18 to 20 hours later the animals received the last treatment. One hour later the animals were anaesthetized with 10% urethane ([…] intraperitoneally) and the left jugular vein and right carotid artery were incannulated. Collagen (type 6, Sigma) was then administered intravenously at a dose of 2 mg/kg. Three minutes later two blood samples (A and B) were collected from the carotide artery using 2.5-ml plastic syringes in the following manner: sample A, 0.4 ml of blood in 1.6 ml of EDTA/formalin buffer (ETDA tetrasodium salt 24 mM, KH2 PO4 1.3 mM, Na2 PO4 13.4 mM), the samples were then transferred into 5-ml polystyrene test tubes and allowed to settle for 15 minutes at ambient temperature. After this time, the platelet aggregations in sample A were fixed in formalin, while those from sample B were treated with EDTA. Platelet count was then made in each sample using a conventional microscope. The count for sample B was the total number of platelets, while for sample A were considered only non-aggregated platelets. The results were expressed as per-cent aggregation, calculated as follows: {[1-(platelet count in sample A)/(platelet count in sample B)]×100}.

[3] = tested on: arterial hypertension induced by L-NAME; test: Antihypertensive activity: L-NAME induced arterial hypertension; format: in vivo, male Wistar rats; settings: rats, 10 mg/kg intravenous daily for 5 days, 1 h after treatment, vehicle 170 ± 7, * P < 0.05 versus the other two groups
Description: as §1, §2
The ability of NO-ENA to inhibit hypertension was evaluated using an in vivo model as described by Ribeiro et al. (Hypertension 20, 298, 1992). 5 groups of male Wistar rats (235 to 284 g) received a daily intravenous dose of 10 mg/kg of, respectively, NO-ENA, enalapril, NO-TIM, timolol or vehicle for 5 days. Arterial hypertension was induced by administration of N^w -nitro-L-argininemethyl ester (L-NAME) in the drinking water for 6 weeks. L-NAME was dissolved in the drinking water at a concentration of 60 to 70 mg 100 ml^-1 so as to administer a daily amount of about 60 mg kg^-1. One hour after treatment the systemic blood pressure was measured by the tail-cap method (Zats, Lab. Anim. Sci.42, 198, 1990).

[4] = tested on: bronchoconstriction induced by capsaicin; test: Effects on capsaicin-induced bronchoconstriction; format: in vivo, female Guinea pigs; settings: Guinea pigs, 10 mg/kg intraduodenal; capsaicin 1 μg/kg 45 min later; vehicle = 100
Description: Bronchoconstriction induced by capsaicin in Guinea pigs is an animal model related to the ability of ACE (angiotensin-converting enzyme) inhibitors to cause cough in patients (Subissi et al., J. Cardiovasc. Pharmacol.20/1,139-146, 1992).
Adopted test conditions were as previously described by Del Soldato et al. (J. Pharmacological Methods 5, 279, 1981). Female Guinea pigs weighing 300 to 400 g were anaesthetised by intraperitoneal injection of sodium 5,5-diethylbarbiturate (200 mg/kg) and maintained under artificial respiration at constant positive pressure. The right jugular vein was incannulated for administering […]. By a median incision of the abdomen, the duodenum was removed and through a small incision the tip of a suitable polyethylene cannula was inserted and fixed. The other end of the cannula was connected to a syringe for intraduodenal administration of NO-ENA (10 mg/kg), enalapril (10 mg/kg) or vehicle. […] Before and after injection of capsaicin, changes in the tidal area were measured by a modified Konzett apparatus connected to a suitable polygraphic amplifier (Hewlett Packard).
The results were calculated as the ratio of the responses obtained before and after administration of the test compound, expressed as a % of the response obtained with the vehicle alone, shown in Table 4.

[5] = Plasma/aqueous humor concentration ratio by HPLC (ocular safety); format: in vivo; settings: rabbits, topical, versus timolol
Description: Furthermore, for NO-TIM, the ratio between product concentrations in plasma (P) and aqueous humor (AH) versus timolol was determined by an HPLC method.

CCOC(=O)C(CCc1ccccc1)NC(C)C(=O)N1CCC[C@H]1C(=O)Oc1cccc(CO[N+](=O)[O-])c1 (stereo partly shown) [NO-ENA]
duration of intraocular pressure reduction (intraocular pressure): more than 6 hours
reduction of intraocular pressure (intraocular pressure): 6 mmHg
reduction of intraocular pressure versus timolol and enalapril (intraocular pressure): more pronounced and more lasting
ANTITHROMBOTIC ACTIVITY (inhibition percentage compared to the control group) [1]: 53%
ANTIPLATELET ACTIVITY (per-cent inhibition of platelet aggregation versus vehicle control) [2]: 65%
MEAN BLOOD PRESSURE [3]: 115 ± 4 mmHg
BRONCHOCONSTRICTIVE RESPONSE (% of the response obtained with the vehicle alone) [4]: 72%

CCOC(=O)[C@H](CCc1ccccc1)N[C@@H](C)C(=O)N1CCC[C@H]1C(=O)O [ENALAPRIL, reference compound]
ANTITHROMBOTIC ACTIVITY (inhibition percentage compared to the control group) [1]: 11%
ANTIPLATELET ACTIVITY (per-cent inhibition of platelet aggregation versus vehicle control) [2]: 15%
MEAN BLOOD PRESSURE [3]: 163 ± 5 mmHg
BRONCHOCONSTRICTIVE RESPONSE (% of the response obtained with the vehicle alone) [4]: 327%

CC(C)(C)NC[C@H](COc1nsnc1N1CCOCC1)OC(=O)CCCO[N+](=O)[O-].O=C(O)/C=C\C(=O)O [NO-TIM, (R)-(4-nitroxy)butanoate of 1-[(1,1-dimethylethyl)amino]-3-{[4-(4-morpholinyl)-1,2,5-thiadiazol-3-yl]oxy}-2-propyl maleate]
duration of intraocular pressure reduction (intraocular pressure): more than 6 hours
reduction of intraocular pressure (intraocular pressure): 7 mmHg
reduction of intraocular pressure versus timolol and enalapril (intraocular pressure): more pronounced and more lasting
ANTITHROMBOTIC ACTIVITY (inhibition percentage compared to the control group) [1]: 44%
ANTIPLATELET ACTIVITY (per-cent inhibition of platelet aggregation versus vehicle control) [2]: 58%
P/AH ratio (plasma/aqueous humor concentration), times lower than that for timolol [5]: 5.5 times

CC(C)(C)NC[C@H](O)COc1nsnc1N1CCOCC1 [TIMOLOL, reference compound]
ANTITHROMBOTIC ACTIVITY (inhibition percentage compared to the control group) [1]: 6%
ANTIPLATELET ACTIVITY (per-cent inhibition of platelet aggregation versus vehicle control) [2]: 2%
